Patent US6417178B1, “Amyloid binding nitrogen-linked compounds for the antemortem diagnosis of alzheimer's disease, in vivo imaging and prevention of amyloid deposits” (University of Pittsburgh, priority 1994, dated 2002)
“And” between values parts separate entries of the source, which are not always exact repeats. Equal entries are not always repeated. Where two headings read alike, the source gives them in different places.

How the values were obtained:
AD brain homogenates [1] = assay: [14C]CG binding to AD brain homogenates; details: for total binding, AD: high and low-plaque AD brains combined
Description: (§2) Autopsy brain samples were obtained from the Neuropathology Core of the Alzheimer's Disease Research Center of the University of Pittsburgh. […] Brain samples from eight control (ages 58-75), eleven AD (ages 61-84), and two Down syndrome brains were studied. There were six high-plaque (>20 NPs/×200 magnification) and five low-plaque (<20 NPs/×200 magnification) AD brains. […] Autopsy samples were immediately frozen at −70° C. and stored at that temperature until homogenized. […] The Bielschowsky silver impregnation method was used to identify NPs and NFTs and Congo red staining was used to identify cerebral amyloid angiopathy.
(§3) Aliquots of 25-150 μl tissue (about 25-300 μg of protein by the method of Lowry et al., J. Biol, Chem. 193: 265 (1951)) were incubated in 12×75 mm borosilicate glass tubes at room temperature with 10-750 nM [^14C]CG (26.8 Ci/mole) in a final volume of 1.0 ml of 10% ethanol for 30 min at room temperature. The standard conditions employed about 150 μg of protein and 75 nM [^14C]CG for the cerebellar ratio studies and about 75 μg of protein and 150 nM [^14C]CG for the correlative studies with NPs, NFTS, and amyloid angiopathy. Ethanol was necessary to prevent the micelle formation which occurs with diazo dye derivatives, since the micelles are trapped by the filter even in the absence of tissue. Bound and free radioactivity were separated by vacuum filtration through Whatman GF/B filters using a Brandel M-24R Cell Harvester (Gaithersburg, Md.) followed by two 3-ml washes with 10% ethanol at room temperature. Filters were equilibrated overnight in 4 ml Cytoscint®-ES scintillant (ICN Biomedicals, Inc., Irvine, Calif.) in 7.0 ml plastic scintillation vials before counting. Saturable (specific) binding was defined as total binding minus residual (non-saturable) binding in the presence of 20 μM unlabelled CG. In all binding assays, incubations were done at least in triplicate and the results expressed as mean±standard error unless otherwise specified. Results were expressed either in absolute terms of fmol [^14C]CG bound/μg protein in a given brain area, or as a ratio of the fmol/μg protein in that brain area to the fmol/μg protein in the cerebellum of the same brain.

AD brain homogenates [2] = target: AD brain homogenates (Homo sapiens, UniProt P05067); assay: [14C]CG binding to AD brain homogenates
Sequence of AD brain homogenates (Homo sapiens, UniProt P05067) (P05067 18-770): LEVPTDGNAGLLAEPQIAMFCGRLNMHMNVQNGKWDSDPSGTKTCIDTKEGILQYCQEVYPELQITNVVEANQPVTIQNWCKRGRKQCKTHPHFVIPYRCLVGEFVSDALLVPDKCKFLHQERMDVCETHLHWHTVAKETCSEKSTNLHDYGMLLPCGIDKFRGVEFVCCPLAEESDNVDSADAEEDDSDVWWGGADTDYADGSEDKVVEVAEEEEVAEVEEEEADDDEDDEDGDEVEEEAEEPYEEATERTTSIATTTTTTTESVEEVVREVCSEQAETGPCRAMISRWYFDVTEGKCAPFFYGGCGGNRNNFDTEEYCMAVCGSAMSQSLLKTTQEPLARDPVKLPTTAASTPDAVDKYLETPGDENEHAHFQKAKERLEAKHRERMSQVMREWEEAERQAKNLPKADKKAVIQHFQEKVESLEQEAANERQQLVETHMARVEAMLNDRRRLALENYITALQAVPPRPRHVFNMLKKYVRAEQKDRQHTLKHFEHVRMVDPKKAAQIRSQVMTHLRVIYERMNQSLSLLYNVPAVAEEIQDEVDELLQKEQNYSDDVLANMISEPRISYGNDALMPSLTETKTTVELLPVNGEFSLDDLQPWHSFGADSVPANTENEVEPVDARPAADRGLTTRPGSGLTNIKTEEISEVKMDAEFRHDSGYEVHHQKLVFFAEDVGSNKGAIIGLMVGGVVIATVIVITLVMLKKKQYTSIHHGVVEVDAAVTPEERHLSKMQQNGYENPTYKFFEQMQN
Description: as §2, §3

[3] = Octanol/water partitioning; assay type: physicochemical; details: from partition coefficients
Description: The mixture was then centrifuged at 1,000 g to facilitate the formation of two clear phases. […] Concentrations were determined after correction for the molar absorptivity differences in the two solvents and the partition coefficient expressed as the concentration in the octanol layer divided by the concentration in the aqueous layer. Experiments were done in triplicate.

[4] = system: Down's syndrome brain samples; assay: [14C]Chrysamine G binding to Down's syndrome brain samples; set-up: species or system human; details: two patients; ratio to cerebellum (FIG. 9C)
Source text: Down's syndrome patients all develop deposits of Aβ by their fourth decade and many develop AD. Wisniewski et al., Neurology 35: 957 (1985); Schapiro et al., Neurobiol. Aging 13, 723 (1992).

[5] = system: control brain homogenates; assay: [14C]CG binding to control brain homogenates; set-up: species or system human
[6] = target: synthetic Aβ (10-43) peptide (Homo sapiens, UniProt P05067); assay: Scatchard analysis of Chrysamine G binding to synthetic Aβ (10-43)
Sequence of synthetic Aβ (10-43) peptide (P05067 681-714): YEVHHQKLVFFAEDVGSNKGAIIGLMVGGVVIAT
Source text: Hilbich et al., J. Mol. Biol. 218: 149 (1991). The 10-43 amino acid fragment of Aβ was synthesized with 9-fluorenylmethyl chloroformate (FMOC) chemistry by the Peptide Synthesis Facility of the University of Pittsburgh. […] The peptide was further purified by the method of Hilbich et al. which, in brief, consisted of sequential size-exclusion chromatography on a Biogel P10 column (2×180 cm, 200-400 mesh, Biorad, Richmond, Calif.) in 70% formic acid followed by a second elution through a Biogel P4 column (2×180 cm, 200-400 mesh) in 1M acetic acid. Hilbich et al., J. Mol. Biol. 218: 149 (1991). The peptide was lyophilized and stored at −80° C. until used in the binding assays.
(§1) Binding assays were performed in 12×75 mm borosilicate glass tubes. […] To the above solution, 25 μl of a 0.36 mg/ml suspension of Aβ (10-43) in H2O was added and 10% ethanol was added to bring the volume to 950 μl. […] The binding mixture was incubated for 30 min at room temperature.

[7] = target: T1, synthetic peptide, Aβ (10-43) (Homo sapiens, UniProt P05067); assay: Inhibition of [14C]Chrysamine G binding to Aβ (10-43)
T1 construct: The 10-43 amino acid fragment of Aβ was synthesized; made in house; host or cells: chemical (FMOC) peptide synthesis, no expression host
T1 sequence (P05067 681-714): as above
Description: as §1
Ki is defined as IC50/(1+[L]/KD ), where [L] is the concentration of [^14C]

Aβ (10-43) = Aβ (10-43) (Homo sapiens, UniProt P05067); assay: Kinetics of [14C]Chrysamine G binding to Aβ (10-43)
Sequence of Aβ (10-43) (P05067 681-714): as above
Description: This mixture was vortexed and incubated for 30 min at room temperature.
Bennett, J. P. and Yamamura, H. I. in NEUROTRANSMITTER RECEPTOR BINDING (N.Y.: Raven Press 1985) pp. 61-89. […] The curve in FIG. 6C follows the equation: […]

in vivo = details: mouse
[8] = Tissue levels after i.v. injection of [14C]Chrysamine G in mice (blood-brain barrier, metabolism); assay type: in vivo, Swiss-Webster mice; details: brain and liver extracted 60 min after i.v. injection
Description: Mice were sacrificed by cervical dislocation at intervals of 15 min, 35 min, 1 hr, 4 hr, and 24 hr after injection. The carotid blood, brain, liver, and kidneys were rapidly obtained, weighed, and homogenized in distilled/deionized H2O using a ground glass homogenizer. An aliquot was weighed into an 18.0 ml plastic scintillation vial (Beckman Poly-Q-Vial) and counted after addition of 10.0 ml of scintillation cocktail (Cytoscint®-ES (ICN)) and overnight equilibration.
Brain and liver were then removed and extracted with a Folch procedure. Folch et al., J. Biol. Chem. 226: 447 (1957). In both tissues, over 95% of the extracted radioactivity was contained in the organic layer. The organic layer was evaporated to dryness, resuspended in a minimal amount of 10% methanol/90% ACN, and injected onto a silica column (Prep Nova Pak HR Silica, 7.8×300 mm, Waters, Milford, Mass.) and eluted isocratically with the same solvent. Under these conditions, 99% of the radioactivity is eluted in the solvent front, but most lipids are retained longer, making the fraction eluting in the solvent front suitable for injection onto the reverse-phase C4 column system described above. […] One minute fractions were collected and counted after addition of 10 ml of Cytoscint®-ES.

[9] = system: rat pheochromocytoma (PC-12) cells
Description: Rat pheochromocytoma cells (PC-12) were grown in RPMI 1640 media with 10% fetal bovine serum. Approximately 5,000 exponentially growing cells were plated in 96-well plates in a volume of 100 μl of media and allowed to incubate at 37° C. overnight. […] The cells were incubated for 24 hrs prior to the addition of 13.3 μl of 5 mg/ml MTT (3,(4,5-dimethylthiazol-2-yl)2,5-diphenyltetrazolium bromide) in sterile phosphate buffered saline. After 4.5 hrs at 37° C., 100 μl of extraction buffer (20% w/v SDS in 50% DMF/water; pH adjusted to 4.7 with 2.5% of 80% acetic acid and 2.5% 1N HCl) was added and the plates were incubated overnight. Hansen et al., J. Immunol. Methods 119: 203 (1989). Color development was then measured at 560 nm. Maximum viability was defined as the absorbance of control wells to which only the 20 μl of distilled, deionized H2O was added. Maximum toxicity was defined by wells in which the cells were lysed by addition of 0.1% (final concentration) of Triton X-100.

[10] = PC-12 cells, Aβ (25-35), MTT reduction

Compound: O=C(O)c1cc(N=Nc2ccc(-c3ccc(N=Nc4ccc(O)c(C(=O)O)c4)cc3)cc2)ccc1O [Chrysamine G, 4,4′-bis(3-carboxy-4-hydroxyphenylazo)-biphenyl]
- saturable (specific) binding as share of total binding (AD brain homogenates [1]; AD brain homogenates): 60-80%
- total binding, AD (AD brain homogenates [1]; Cerebellum): 73 ± 9 (n = 11) fmol/μg protein
- total binding, AD (AD brain homogenates [1]; Frontal Pole): 124 ± 16 (n = 10) fmol/μg protein
- total binding, AD (AD brain homogenates [1]; Head of Caudate): 123 ± 22 (n = 7) fmol/μg protein
- total binding, AD (AD brain homogenates [1]; Inferior Parietal): 137 ± 19 (n = 11) fmol/μg protein
- total binding, AD (AD brain homogenates [1]; Occipital): 95 ± 12 (n = 11) fmol/μg protein
- total binding, AD (AD brain homogenates [1]; Superior Temporal): 121 ± 14 (n = 11) fmol/μg protein
- total binding, AD (AD brain homogenates [1]; Superior/Middle Frontal): 130 ± 21 (n = 11) fmol/μg protein
- Bmax in AD brain higher than control (AD brain homogenates [1]; not significant (p=0.09)): 36%
- KD in AD brain lower than control (AD brain homogenates [1]; not significant (p=0.29)): 16%
- Bmax (pmol/μg prot) (AD brain homogenates [2]; AD (n = 5)): 0.784 ± .061 pmol/μg prot
- Bmax, typical AD brain sample (FIG. 4B) (AD brain homogenates [2]; AD brain sample with 48 NP/×200 magnification): 790 fmol/μg protein
- times more lipophilic than Congo red [3]: approximately 90
- binding in Down's syndrome brain compared with control [4]: above the control range
- Bmax, typical control brain sample (FIG. 4B) [5]: 614 fmol/μg protein
- total binding, Control ([5]; Cerebellum): 75 ± 13 (n = 8) fmol/μg protein
- Bmax (pmol/μg prot) ([5]; Control (n = 6)): 0.576 ± .092 pmol/μg prot
- Kd ([5]; Control (n = 6), read-out: KD): 470 ± 49 nM
- total binding, Control ([5]; Frontal Pole): 58 ± 8 (n = 6) fmol/μg protein
- total binding, Control ([5]; Head of Caudate): 73 ± 11 (n = 4) fmol/μg protein
- total binding, Control ([5]; Inferior Parietal): 76 ± 13 (n = 8) fmol/μg protein
- total binding, Control ([5]; Occipital): 64 ± 16 (n = 8) fmol/μg protein
- total binding, Control ([5]; Superior Temporal): 66 ± 17 (n = 8) fmol/μg protein
- total binding, Control ([5]; Superior/Middle Frontal): 54 ± 10 (n = 8) fmol/μg protein
- Kd ([5]; read-out: KD, typical control brain sample (FIG. 4B)): 480 nM
- Kd ([6]; Scatchard, two independent binding site model, read-out: KD, higher affinity component): 257 nM and 260 nM
- Bmax, higher affinity component ([6]; Scatchard, two-site model): 3.18 nmoles Chrysamine G/mg Aβ (10-43)
- Bmax, lower affinity component ([6]; Scatchard, two-site model, less well defined): 18.7 nmoles Chrysamine G/mg Aβ (10-43)
- Kd ([6]; whether measured by Scatchard analysis, kinetic methods, or inhibition of binding, read-out: dissociation constant): 250 to 400 nM
- Ki ([7]; Ki for inhibition of [14C]Chrysamine G binding to Aβ (10-43), Ki=IC50/(1+[L]/KD), KD 0.26 μM): 370 ± 40 nM
- energy of binding ([7]; ΔG=−RT ln Keq, Keq=1/KD≈1/Ki): roughly 38 KJ/mole
- time by which association is essentially complete (Aβ (10-43); [Chrysamine G]=112 μM): ≤ 1 min
- Kd (Aβ (10-43); from kinetic constants, read-out: KD=k−1/k1): 340 nM
- LD50 at 72 h (in vivo): > 100 mg/kg
- recovered radioactivity co-eluting with authentic Chrysamine G on reverse phase HPLC [8]: > 95%
- MTT reduction with compound alone versus control [9]: no significant difference
- concentration at which the protective effect is evident [9, 10]: 0.2 µM
- concentration range showing effects [9, 10]: 0.1 to 1.0 µM
- effect on toxicity induced by 1 μM Aβ (25-35) ([9]; PC-12 cells, MTT reduction (FIG. 14)): protective effects at 0.1 and 1 μM
